# Patent US20250179176A1, “ANTI-TIGIT ANTIBODIES AND USES OF THE SAME” (ARCUS BIOSCIENCES, INC., priority 2022, published 2025)
# Entries after “also recorded” stand apart in the source; their conditions may differ.
# Experiments:
# [1] = tested on: metastatic (Stage IV) squamous or non-squamous NSCLC; assay: Phase 2 study in front-line NSCLC (ARC-7), efficacy; assay type: in vivo, human
# Source text: Participants were randomized 1:1:1 across the three study arms and treated until disease progression or loss of clinical benefit. […] Patients in the zimberelimab monotherapy arm with confirmed progression had the option to cross over to the triplet arm. Co-primary endpoints were objective response rate (ORR) and progression-free survival (PFS). Secondary endpoints included safety, duration of response and disease control rates. Additional assessments of response/on-treatment effects may include measures of immune cell activation, immune cell suppression, immune cell proliferation, T cell receptor dynamics, and/or increases in memory and antigen experienced T cells in periphery or tumor microenvironment, as well as molecular response assessment by ctDNA dynamics and/or changes in tumor cell markers or gene expression.
# Further data were obtained from an interim analysis with a data cutoff of Aug. 31, 2022.
# [2] = molecular target: human FcγR1 (Homo sapiens, UniProt P12314); assay: ELISA binding of domvanalimab to FcγR; settings: up to 1 μM, vs human IgG1 control
# Protocol: Antibody-dependent cell mediated cytotoxicity (ADCC) is mediated by the antibody Fc domain binding to a FcγR. […] Human IgG1 was used as a positive control and buffer containing no antibody was used as a negative control.
# Briefly, ELISA plate coating solution was prepared by diluting human Fc-gamma receptors in PBS to a final concentration of 1 μg/mL (FcγR1) or 4 μg/mL (Fcγ R2A, 2B, 3A and 3B). 30 μL of coating solution was added to each well of the test plates, and the ELISA plates were then incubated overnight at 4° C. to facilitate receptor binding. The following day, ELISA plates were washed four times with 80 μL wash buffer (1×PBS+0.05% Tween-20) per well, prior to blocking with 80 μL blocking buffer (1×PBS+2% BSA) per well at room temperature for 2 hours.
# Plates were then incubated for an hour prior to removal of well contents by aspiration followed by four washes with wash buffer. 30 μL of anti-human IgG HRP conjugate at 1:2500 dilution in antibody buffer was added to each of the washed wells. Plates were further incubated at room temperature for an additional 30 minutes. […] Luminescent signals were captured using an Envision Multimode Reader (Perkin Elmer) system approximately 10 minutes after substrate addition.
# [3] = efficacy population, later cutoff
# Sequence of human FcγR1 (P12314 16-374): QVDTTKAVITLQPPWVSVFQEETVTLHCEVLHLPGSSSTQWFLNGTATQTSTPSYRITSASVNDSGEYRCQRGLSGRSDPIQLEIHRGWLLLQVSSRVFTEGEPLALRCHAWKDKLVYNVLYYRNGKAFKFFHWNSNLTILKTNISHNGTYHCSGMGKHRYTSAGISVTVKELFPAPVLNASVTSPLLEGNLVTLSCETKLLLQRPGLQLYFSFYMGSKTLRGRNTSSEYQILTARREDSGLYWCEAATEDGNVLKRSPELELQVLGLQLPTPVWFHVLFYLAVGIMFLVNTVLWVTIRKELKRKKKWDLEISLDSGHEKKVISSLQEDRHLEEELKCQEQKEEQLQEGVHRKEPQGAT
Molecule,"patients with partial response remaining on treatment ([1]; ITT-13, cutoff Aug. 31, 2022) [n]","patients with stable disease remaining on treatment ([1]; ITT-13, cutoff Aug. 31, 2022) [n]","6-month progression-free survival rate ([1]; Kaplan Meier, ITT-13) [%]","median PFS ([1]; Kaplan Meier, ITT-13) [months]","6-mo PFS % (95% CI) [1, 3]","CORR (confirmed Objective Response Rate, per RECIST v1.1) [1, 3]","Complete Response [1, 3]","Not Evaluable [1, 3]","Partial Response [1, 3]","Progressive Disease [1, 3]","Stable Disease [1, 3]","median PFS [1, 3] [mo]",binding to human FcγR1 [2]
"zimberelimab: antagonistic PD-1 antibody, immune checkpoint inhibitor",5,3,43,5.4,"43 (27, 59) %",12 (27) n (%),0 (0) n (%),7 (16) n (%),12 (27) n (%),11 (25) n (%),14 (32) n (%),5.4,
"domvanalimab: anti-TIGIT antibody with engineered IgG1 Fc, reduced FcγR binding; heavy chain SEQ ID NO: 12, light chain SEQ ID NO: 13 (antibody) heavy: EVQLVESGGGLVQPGGSLRLSCAASGFTFSNFGMHWVRQAPGKGLEWVAFISSGSSSIYYADTVKGRFTISRDNAKNSLYLQMNSLRAEDTAVYYCARMRLDYYAMDYWGQGTMVTVSSASTKGPSVFPLAPSSKSTSGGTAALGCLVKDYFPEPVTVSWNSGALTSGVHTFPAVLQSSGLYSLSSVVTVPSSSLGTQTYICNVNHKPSNTKVDKKVEPKSCDKTHTCPPCPAPEAAGGPSVFLFPPKPKDTLMISRTPEVTCWVDVSHEDPEVKFNWYVDGVEVHNAKTKPREEQYNSTYRWSVLTVLHQDWLNGKEYKCKVSNKALPAPIEKTISKAKGQPREPQVYTLPPSRDELTKNQVSLTCLVKGFYPSDIAVEWESNGQPENNYKTTPPVLDSDGSFFLYSKLTVDKSRWQQGNVFSCSVMHEALHNHYTQKSLSLSPGK light: DIQMTQSPSSLSASVGDRVTITCRASKSISKYLAWYQQKPGKAPKLLIYSGSTLQSGVPSRFSGSGSGTDFTLTISSLQPEDFATYYCQQHNEYPWTFGGGTKVEIKRTVAAPSVFIFPPSDEQLKSGTASWCLLNNFYPREAKVQWKVDNALQSGNSQESVTEQDSKDSTYSLSSTLTLSKADYEKHKVYACEVTHQGLSSPVTKSFNRGEC",,,,,,,,,,,,,no significant binding; also recorded: does not bind
